Reference: US20240216369A1, “THE USE OF A SPLICING MODULATOR FOR A TREATMENT SLOWING PROGRESSION OF HUNTINGTON'S DISEASE” (Novartis AG, priority 2019, published 2024)

Legend:
mHTT = assay: Mutant and total HTT multiplex HTRF assay in Q48 HTT human embryonic stem cell line: mHTT; format: cell-based; conditions: Q48 HTT hESC, 48 hours
Protocol: (§1) The multiplex assay is performed in human embryonic stem cells (hESCs) which have been derived by Genea Biocells from human blastocysts of HD donors. Cells are plated at a density of 10,000 cells/well into 384-well collagen coated plates and left to adhere for 24 hours, compounds 1 to 82 are then added to cells and incubated for 48 hours (37° C., 5% CO2), cells are then lysed and the contents split into a black 384-well plate.
(§2) The black plates have a combination of HTRF labeled monoclonal antibodies added which recognize discrete areas of the HTT protein, the 2B7-Tb “donor” antibody (0.2 ng/well) recognizes a sequence at the N-terminus of the protein, an MW1-Alexa488 “acceptor 1” antibody (30 ng/well) recognizes an area in the polyQ region, whereas a MAB2166-d2 “acceptor 2” antibody (6 ng/well) recognizes a sequence beyond the polyQ region. The 2B7 antibody was obtained from Coriell (CH02024), the MW1 antibody from Millipore (MABN2427), and the MAB2166 antibody from Millipore (1HU-4C8).
(§3) These detection reagents are incubated with the cell lysate at room temperature for 4-6 hours before having their fluorescence quantified at 615 nm (donor) and 535 nm and 665 nm (acceptor 1 and 2 respectively). The donor/acceptor ratio between these signals indicates the relative quantities of mHTT and tHTT proteins. As shown in the Table 1, compounds 1 to 82 as described therein and in Table 2, had the following pIC50 values.

tHTT = assay: Mutant and total HTT multiplex HTRF assay in Q48 HTT human embryonic stem cell line: tHTT; format: cell-based; conditions: Q48 HTT hESC, 48 hours
Protocol: as §1, §2, §3

Row | Structure (SMILES) | Rating (based on mHTT potency) (mHTT) | mHTT pIC50 (mHTT) | tHTT pIC50 (tHTT)
1 | CN(c1nnc(-c2c(F)cc(-c3cn[nH]c3)cc2F)s1)C1CC(C)(C)NC(C)(C)C1 [Compound 45, 5-(2,6-difluoro-4-(1H-pyrazol-4-yl)phenyl)-N-methyl-N-(2,2,6,6-tetramethylpiperidin-4-yl)-1,3,4-thiadiazol-2-amine] | *** (a pIC50 value between 6.5 and 7.0 is indicated by three stars (***)) | 6.861 | 6.7715
2 | Cc1cnc2cc(O)c(-c3ccc(N(C)C4CC(C)(C)NC(C)(C)C4)nn3)cc2n1 [Compound 46, 2-methyl-7-(6-(methyl(2,2,6,6-tetramethylpiperidin-4-yl)amino)pyridazin-3-yl)quinoxalin-6-ol] | *** (a pIC50 value between 6.5 and 7.0 is indicated by three stars (***)) | 6.8485 | 6.778
3 | Cc1ccc2cc(-c3ccc(N(C)C4CC(C)(C)NC(C)(C)C4)nn3)c(O)cc2n1 [Compound 47, 2-methyl-6-(6-(methyl(2,2,6,6-tetramethylpiperidin-4-yl)amino)pyridazin-3-yl)quinolin-7-ol] | *** (a pIC50 value between 6.5 and 7.0 is indicated by three stars (***)) | 6.8415 | 6.92
4 | CC1(C)CC(Nc2ccc(-c3cc4cc(C#N)ccc4s3)nn2)CC(C)(C)N1 [Compound 48, 2-(6-(2,2,6,6-tetramethylpiperidin-4-ylamino)pyridazin-3-yl)benzo[b]thiophene-5-carbonitrile] | *** (a pIC50 value between 6.5 and 7.0 is indicated by three stars (***)) | 6.822 | 6.9
5 | CN(c1nnc(-c2ccc(-c3ccn(C)c(=O)c3)cc2O)s1)C1CC(C)(C)NC(C)(C)C1 [Compound 49, 4-(3-hydroxy-4-(5-(methyl(2,2,6,6-tetramethylpiperidin-4-yl)amino)-1,3,4-thiadiazol-2-yl)phenyl)-1-methylpyridin-2(1H)-one] | *** (a pIC50 value between 6.5 and 7.0 is indicated by three stars (***)) | 6.819 | 6.6665
6 | COc1ccnc2cc(-c3ccc(N(C)C4CC(C)(C)NC(C)(C)C4)nn3)c(O)cc12 [Compound 50, 4-methoxy-7-(6-(methyl(2,2,6,6-tetramethylpiperidin-4-yl)amino)pyridazin-3-yl)quinolin-6-ol] | *** (a pIC50 value between 6.5 and 7.0 is indicated by three stars (***)) | 6.8055 | 6.7835
7 | CN(c1ccc(-c2cc3c(C(N)=O)nccc3cc2O)nn1)C1CC(C)(C)NC(C)(C)C1 [Compound 51, 6-hydroxy-7-(6-(methyl(2,2,6,6-tetramethylpiperidin-4-yl)amino)pyridazin-3-yl)isoquinoline-1-carboxamide] | *** (a pIC50 value between 6.5 and 7.0 is indicated by three stars (***)) | 6.801 | 6.779
8 | CN(c1ccc(-c2cc3ccncc3cc2O)nn1)C1CC(C)(C)NC(C)(C)C1 [Compound 52, 6-(6-(methyl(2,2,6,6-tetramethylpiperidin-4-yl)amino)pyridazin-3-yl)isoquinolin-7-ol] | *** (a pIC50 value between 6.5 and 7.0 is indicated by three stars (***)) | 6.7625 | 6.6455
9 | Cc1cc(C2CC2)c2cc(-c3ccc(N(C)C4CC(C)(C)NC(C)(C)C4)nn3)c(O)cc2n1 [Compound 53, 4-cyclopropyl-2-methyl-6-(6-(methyl(2,2,6,6-tetramethylpiperidin-4-yl)amino)pyridazin-3-yl)quinolin-7-ol] | *** (a pIC50 value between 6.5 and 7.0 is indicated by three stars (***)) | 6.746 | 6.7095
10 | Cc1nc2cc(-c3ccc(N(C)C4CC(C)(C)NC(C)(C)C4)nn3)c(O)cc2[nH]1 [Compound 54, 2-methyl-5-(6-(methyl(2,2,6,6-tetramethylpiperidin-4-yl)amino)pyridazin-3-yl)-1H-benzo[d]imidazol-6-ol] | *** (a pIC50 value between 6.5 and 7.0 is indicated by three stars (***)) | 6.728 | 6.753
11 | CN(c1ccc(-c2cc3c(=O)nc[nH]c3cc2O)nn1)C1CC(C)(C)NC(C)(C)C1 [Compound 55, 7-hydroxy-6-(6-(methyl(2,2,6,6-tetramethylpiperidin-4-yl)amino)pyridazin-3-yl)quinazolin-4(1H)-one] | *** (a pIC50 value between 6.5 and 7.0 is indicated by three stars (***)) | 6.71 | 6.7485
12 | CCc1cnc2cc(O)c(-c3ccc(N(C)C4CC(C)(C)NC(C)(C)C4)nn3)cc2c1 [Compound 56, 3-ethyl-6-(6-(methyl(2,2,6,6-tetramethylpiperidin-4-yl)amino)pyridazin-3-yl)quinolin-7-ol] | *** (a pIC50 value between 6.5 and 7.0 is indicated by three stars (***)) | 6.709 | 6.709
13 | COc1ccc2cc(-c3ccc(N(C)C4CC(C)(C)NC(C)(C)C4)nn3)c(O)cc2c1 [Compound 57, 7-methoxy-3-(6-(methyl(2,2,6,6-tetramethylpiperidin-4-yl)amino)pyridazin-3-yl)naphthalen-2-ol] | *** (a pIC50 value between 6.5 and 7.0 is indicated by three stars (***)) | 6.7085 | 6.791
14 | COc1cc(-c2cn[nH]c2)cc(O)c1-c1ccc(N(C)C2CC(C)(C)NC(C)(C)C2)nn1 [Compound 58, 3-methoxy-2-(6-(methyl(2,2,6,6-tetramethylpiperidin-4-yl)amino)pyridazin-3-yl)-5-(1H-pyrazol-4-yl)phenol] | *** (a pIC50 value between 6.5 and 7.0 is indicated by three stars (***)) | 6.698 | 6.6555
15 | Cc1nc(-c2ccc(-c3ccc(N(C)C4CC(C)(C)NC(C)(C)C4)nn3)c(O)c2)c[nH]1 [Compound 59, 2-(6-(methyl(2,2,6,6-tetramethylpiperidin-4-yl)amino)pyridazin-3-yl)-5-(2-methyl-1H-imidazol-4-yl)phenol] | *** (a pIC50 value between 6.5 and 7.0 is indicated by three stars (***)) | 6.678 | 6.5065
16 | Cc1ncc2cc(-c3ccc(N(C)C4CC(C)(C)NC(C)(C)C4)nn3)c(O)cc2n1 [Compound 60, 2-methyl-6-(6-(methyl(2,2,6,6-tetramethylpiperidin-4-yl)amino)pyridazin-3-yl)quinazolin-7-ol] | *** (a pIC50 value between 6.5 and 7.0 is indicated by three stars (***)) | 6.6725 | 6.7
17 | CN(c1ccc(-c2ccc(C3=CCNCC3)cc2O)nn1)C1CC(C)(C)NC(C)(C)C1 [Compound 61, 2-(6-(methyl(2,2,6,6-tetramethylpiperidin-4-yl)amino)pyridazin-3-yl)-5-(1,2,3,6-tetrahydropyridin-4-yl)phenol] | *** (a pIC50 value between 6.5 and 7.0 is indicated by three stars (***)) | 6.661 | 6.659
18 | COc1cc(-c2sc(C)nc2C)ccc1-c1nnc(N(C)C2CC(C)(C)NC(C)(C)C2)s1 [Compound 62, 5-(4-(2,4-dimethylthiazol-5-yl)-2-methoxyphenyl)-N-methyl-N-(2,2,6,6-tetramethylpiperidin-4-yl)-1,3,4-thiadiazol-2-amine] | *** (a pIC50 value between 6.5 and 7.0 is indicated by three stars (***)) | 6.6555 | 6.6405
19 | CCOc1cc(C)nc2cc(O)c(-c3ccc(N(C)C4CC(C)(C)NC(C)(C)C4)nn3)cc12 [Compound 63, 4-ethoxy-2-methyl-6-(6-(methyl(2,2,6,6-tetramethylpiperidin-4-yl)amino)pyridazin-3-yl)quinolin-7-ol] | *** (a pIC50 value between 6.5 and 7.0 is indicated by three stars (***)) | 6.63 | 6.534
20 | CN(c1ccc(-c2cc3ccc(C#N)nc3cc2O)nn1)C1CC(C)(C)NC(C)(C)C1 [Compound 64, 7-hydroxy-6-(6-(methyl(2,2,6,6-tetramethylpiperidin-4-yl)amino)pyridazin-3-yl)quinoline-2-carbonitrile] | *** (a pIC50 value between 6.5 and 7.0 is indicated by three stars (***)) | 6.5945 | 6.5885
21 | COc1cc(-c2cn[nH]c2)c(F)c(F)c1-c1nnc(N(C)C2CC(C)(C)NC(C)(C)C2)s1 [Compound 65, 5-(2,3-difluoro-6-methoxy-4-(1H-pyrazol-4-yl)phenyl)-N-methyl-N-(2,2,6,6-tetramethylpiperidin-4-yl)-1,3,4-thiadiazol-2-amine] | *** (a pIC50 value between 6.5 and 7.0 is indicated by three stars (***)) | 6.5865 | 6.5835
22 | CN(c1ccc(-c2cc3c(cc2O)C(=O)CC3)nn1)C1CC(C)(C)NC(C)(C)C1 [Compound 66, 6-hydroxy-5-(6-(methyl(2,2,6,6-tetramethylpiperidin-4-yl)amino)pyridazin-3-yl)-2,3-dihydro-1H-inden-1-one] | *** (a pIC50 value between 6.5 and 7.0 is indicated by three stars (***)) | 6.5815 | 6.637
